The source of these data is paper PMC11204507, “Mechanistic Insights into the Neurotoxicity of 2,5-Dimethoxyphenethylamines (2C) and Corresponding N-(2-methoxybenzyl)phenethylamine (NBOMe) Drugs” (Journal of Xenobiotics, 2024).

Where a name gives a salt, the structure may show the parent alone.

In one data set the test system is serotonergic B65 cells. Details: method as in doi:10.1007/s11419-020-00527-w. The conditions noted are these: cited from earlier work.
The subject of the next data set is MAO-A and MAO-B. Particulars: rat model; cited from earlier work.
Data set [1] concerns differentiated SH-SY5Y cells. Further details: method as in PMID 37631071, PMID 25900438. The conditions noted are these: same in vitro model; cited from earlier work.
Data set [2] concerns differentiated SH-SY5Y cells. Details: method as in PMID 37631071, PMID 25900438. The conditions noted are these: same in vitro model; cited from earlier work. The source holds these as a separate data set.
In data set [3] the test system is differentiated SH-SY5Y cells. Particulars: same experimental conditions; cited from earlier work.
Data set [4] has as its system differentiated SH-SY5Y cells. Nature of the data set: Neutral red (NR) uptake cytotoxicity assay. The class given is cell-based, human. As to the method:
The cells were seeded at a density of 25,000 cells/cm^2. To achieve a more mature neuron-like phenotype, SH-SY5Y cells were initially cultured in a complete medium supplemented with RA (10 µM). Subsequently, 3 days post-seeding, TPA (80 nM) was added to each well, and the cells were maintained for another 3 days until use, thus achieving a dopaminergic phenotype. In all the experiments, the cells were used between passages 22 and 28.
The differentiated SH-SY5Y cells (25,000 cells/cm^2) and primary rat cortical cultures (150,000 cells/cm^2) were seeded onto 96-well plates as previously described.
Accordingly, 6 days after seeding (differentiated SH-SY5Y cells) or at 8 DIV (primary cultures), the cells were exposed, for 24 h (37 °C, 5% CO2), to different concentrations of the drugs (0–1000 µM). Thus, the tested concentrations ranged from 0 to 1000 µM for 2C-T-2 and 2C-T-4; 0 to 500 µM for 2C-T-7; 0 to 250 µM for 25T2-NBOMe, and 0 to 100 µM for 25T4-NBOMe and 25T7-NBOMe.
The NR uptake assay is based on the detection of viable cells through the incorporation of the NR dye by the cell’s lysosomes. In brief, after 24 h of exposure to the tested drugs, the differentiated SH-SY5Y cells and primary rat cortical cultures were incubated with NR (50 µg/mL in complete medium) for 90 or 210 min, respectively, at 37 °C, in a 5% CO2-95% air atmosphere. To extract the absorbed dye, an acidified ethanol solution was used, and the absorbance was then measured at 540 nm in a multi-well plate reader (PowerWaveX, BioTek Instruments, Winooski, VT, USA). The cytotoxicity was estimated by the percentage of NR uptake relative to the control cells, and a minimum of 4 independent experiments were conducted in triplicate.

The subject of data set [5] is differentiated SH-SY5Y cells. Nature of the data set: Total glutathione (tGSH) levels, DTNB-GSH recycling assay. It is filed as cell-based, human. Particulars: 100 μM, 24 h; control 100.0%. The source says: Glutathione has a critical role in cellular physiology, playing multiple essential roles in maintaining cellular health and function, including antioxidant defense, detoxification, and cellular signaling. The 5,5′-dithiobis(2-nitrobenzoic acid) (DTNB)-GSH recycling assay was used to measure total GSH (tGSH), which includes the reduced (GSH) and oxidized (GSSG) forms of glutathione. The assay relies on the reaction of GSH with DTNB, producing the yellow-colored 5-thio-2-nitrobenzoic acid (TNB). Thus, the TNB generated is directly proportional to the amount of GSH present in the sample [31].
Thus, the SH-SY5Y cells were seeded onto 6-well plates (25,000 cells/cm^2) following the previously described seeding and differentiation protocol. On the day of the experiment, the cells were exposed to different concentrations of the tested drugs (EC20 and EC50) for 24 h (37 °C, 5% CO2). At the end of the incubation period, the cells were centrifuged (5 min, 250 g, 4 °C). For the analysis of extracellular GSH levels, the supernatants were collected, and proteins precipitated with 30% HClO4 for at least 30 min (4 °C). For the analysis of intracellular GSH levels, after collecting the supernatants, the cells were treated with 5% HClO4 for at least 30 min (4 °C). Subsequently, the acidic samples were collected from the plates and centrifuged (5 min, 16,000× g, 4 °C), and the supernatants were stored until further analysis (−80 °C). To assess protein content, the pellets were resuspended in 1M NaOH, maintained at 4 °C overnight, and stored until further analysis (−20 °C). A Bio-Rad DC™ protein assay kit (Bio-Rad Laboratories, Hercules, CA, USA) was used to analyze protein content, in accordance with the manufacturer’s guidelines.
Before the tGSH quantification, the acidic samples were diluted (1:2) with 5% HClO4, and the diluted samples/standards were neutralized with an ice-cold KHCO3 solution (1:1) and centrifuged (5 min, 16,000× g, 4 °C).
Then, 100 µL of supernatant from each sample/standard was transferred into a 96-well plate and 65 µL of an extemporaneous reagent solution (0.68 mM NADPH and 3.96 mM DTNB prepared in a 7.5 pH phosphate buffer) was added to each well, and the plates were incubated for 15 min at 30 °C. After 15 min, 40 μL of a 10 U/mL glutathione reductase solution was added to each well and the formation of 5-thio-2-nitrobenzoic acid (TNB) was monitored every 10 s for 3 min (kinetic mode) at 415 nm in a multi-well plate reader (PowerWaveX, BioTek Instruments, Winooski, VT, USA).
The GSH levels were standardized to protein content. The results are presented as a percentage relative to the control cells (0 µM). A minimum of 6 independent experiments were conducted, in duplicate.
Glutamate/cysteine ligase (GCL), also recognized as gamma-glutamylcysteine synthetase (γ-GCS), is a key enzyme in the first step of glutathione biosynthesis, as it catalyzes the reaction between glutamate and cysteine to produce γ-glutamylcysteine. […] The SH-SY5Y cells were seeded onto 6-well plates (25,000 cells/cm^2) following the previously described seeding and differentiation protocol. On the day of the experiment, the cells were incubated with BSO (100 µM) for 24 h (37 °C, 5% CO2) and the quantification of GSH intracellular levels was achieved according to the previously described method in Section 2.11.

Details of data set [6]: method as in earlier work. The conditions noted are these: reported CHI values of the calibration set; cited from earlier work.
Data set [7] relates to differentiated SH-SY5Y cells. Nature of the data set: Mitochondrial membrane potential, JC-1 dye. It is filed as cell-based, human. The conditions noted are these: positive control, 100 µM, 2 h. From the text: Mitochondrial membrane potential (ΔΨm) is a valuable parameter that reflects the energy status and functional integrity of cells, and the JC-1 dye is widely used as an indicator of ΔΨm. In healthy cells with high ΔΨm, JC-1 forms J-aggregates that emit red fluorescence. In apoptotic or unhealthy cells with low ΔΨm, JC-1 remains in its monomeric form and emits green fluorescence. The ratio of red to green fluorescence intensity is proportional to the degree of polarization of the mitochondrial membrane (a higher ratio indicates a more polarized membrane).
Thus, the SH-SY5Y cells were seeded onto 24-well plates (25,000 cells/cm^2) following the previously described seeding and differentiation protocol. On the day of the experiment, the cells were exposed to different concentrations of the tested drugs (EC20 and EC50) for 24 h (37 °C, 5% CO2). CCCP (100 µM, 2 h) was used as a positive control for mitochondrial membrane depolarization. At the end of the incubation period, the medium was removed, and the cells were incubated, for 30 min, with 10 µM JC-1 under light protection (37 °C, 5% CO2). Subsequently, the plates were centrifuged (5 min, 300× g, room temperature), the supernatants were rejected, and the cells were washed 2 times with warm HBSS with calcium and magnesium. Fluorescence was recorded at the wavelengths of 485 nm excitation and 535 nm emission for JC-1 monomers and 535 nm excitation and 595 nm emission wavelengths for J-aggregates in a multi-well plate reader (PowerWaveX, BioTek Instruments, Winooski, VT, USA). The results are presented as the percentage of JC-1 red/green fluorescence ratio relative to the control cells, and a minimum of 5 independent experiments were conducted in triplicate.

Regarding `COc1cc(CCN)c(OC)cc1Cl` [2C-C, reference compound], the “mitochondrial production of ROS” value in the data set on serotonergic B65 cells was “no significant alterations”.
With `COc1cc(CCN)c(OC)cc1C` [2C-D], the “deamination by MAO-A and MAO-B” value in the data set with MAO-A and MAO-B is “both isoenzymes can catalyze the deamination”.
For the compound `CCc1cc(OC)c(CCN)cc1OC` [2C-E], the “deamination by MAO-A and MAO-B” value in the data set on MAO-A and MAO-B is “both isoenzymes can catalyze the deamination”.
For the compound `COc1cc([N+](=O)[O-])c(OC)cc1CCN` [2C-N], the tGSH content result in data set [1] is given as “significant decrease in the tGSH content”. Further, in data set [2], the ROS production entry was “no ROS production”. In data set [3], the “drug-induced cytotoxicity upon MAO inhibition” value was “significant increase in the drug-induced cytotoxicity was observed upon MAO inhibition”.
In the case of `COc1cc(CCNCc2ccccc2OC)c(OC)cc1Cl` [25C-NBOMe], the tGSH content entry in data set [1] is listed as “significant decrease in the tGSH content”. For the same compound, in [2], the ROS production result is given as “no ROS production”.
For `COc1cc([N+](=O)[O-])c(OC)cc1CCNCc1ccccc1OC` [25N-NBOMe], the “drug-induced cytotoxicity upon MAO inhibition” value in [3] is on record as “significant increase in the drug-induced cytotoxicity was observed upon MAO inhibition”.
In the case of `CCCCS(=N)(=O)CCC(N)C(=O)O` [BSO, L-buthionine sulfoximine, reference compound], in [4] (100 μM, 24 h (Figure S2: + 50 μM for an additional 24 h)), the “cytotoxicity, NR uptake” value is recorded as “No significant cytotoxic effects”. In addition, in data set [5], the “GSH intracellular levels, % of control cells” value is on record as 9.2%.
On to `c1ccc(CN2CCNCC2)cc1` [BZP], for which the tGSH content entry in data set [1] is on record as “significant decrease in the tGSH content”. In data set [2], the ROS production entry is “no ROS production”.
Consider `c1ccc2[nH]cnc2c1` [Benzimidazole], for which the “CHI0 pH 2.3” value in [6] is recorded as 6.3.
For `CCCC(=O)c1ccccc1` [Butyrophenone], the “CHI0 pH 2.3” value in [6] is given as 87.3.
For `N#CC(C#N)=NNc1cccc(Cl)c1` [CCCP, carbonyl cyanide 3-chlorophenylhydrazone, reference compound], the “mitochondrial membrane polarization (JC-1 red/green ratio), % of the control cells” value in data set [7] turned out to be 56.3%.
For the compound `Cn1c(=O)c2c(ncn2C)n(C)c1=O` [Caffeine, caffeine], the “CHI0 pH 2.3” value in data set [6] is recorded as 23.41.
For `NC(=O)N1c2ccccc2C=Cc2ccccc21` [Carbamazepine], the “CHI0 pH 2.3” value in data set [6] was 60.42.
Consider `COc1cc2c(c(OC)c1OC)-c1ccc(OC)c(=O)cc1[C@@H](NC(C)=O)CC2` [Colchicine], for which the “CHI0 pH 2.3” value in data set [6] is reported as 43.9.
On to `c1ccc2[nH]ccc2c1` [Indole], for which the “CHI0 pH 2.3” value in [6] is reported as 72.1.
Regarding `c1cc2c(cc1CN1CCNCC1)OCO2` [MDBP], the tGSH content entry in [1] is recorded as “significant decrease in the tGSH content”. Moreover, in data set [2], the ROS production entry is reported as “no ROS production”.
With `COc1ccc(N2CCNCC2)cc1` [MeOPP], the tGSH content entry in data set [1] is recorded as “significant decrease in the tGSH content”. In addition, the ROS production result in [2] is “no ROS production”.
For `CC(=O)Nc1ccc(O)cc1` [Paracetamol], the “CHI0 pH 2.3” value in data set [6] was 18.77.
As to `CCC(=O)c1ccccc1` [Propiophenone], in data set [6], the “CHI0 pH 2.3” value is 77.4.
With `FC(F)(F)c1cccc(N2CCNCC2)c1` [TFMPP], the tGSH content entry in data set [1] is recorded as “significant decrease in the tGSH content”. Moreover, the ROS production entry in data set [2] is recorded as “no ROS production”.
For `Cn1c(=O)c2[nH]cnc2n(C)c1=O` [Theophyline, theophylline], in [6], the “CHI0 pH 2.3” value is listed as 17.9.
As to `C#CCN(C)CCCOc1ccc(Cl)cc1Cl` [clorgyline, reference compound], in data set [4] (1 μM, 24 h of exposure), the “cytotoxicity, NR uptake” value is “Neither clorgyline nor rasagiline (1 μM) showed significant cytotoxicity”.
Turning to `COc1ccccc1CNCCc1cc(OC)c(OC)c(OC)c1` [mescaline-NBOMe], in data set [1], the tGSH content result is “significant decrease in the tGSH content”. Also, the ROS production entry in data set [2] is on record as “no ROS production”. Also, the “drug-induced cytotoxicity upon MAO inhibition” value in [3] is “significant increase in the drug-induced cytotoxicity was observed upon MAO inhibition”.
For `C#CCN[C@@H]1CCc2ccccc21` [rasagiline, rasagiline mesylate, reference compound], the “cytotoxicity, NR uptake” value in data set [4] (1 μM, 24 h of exposure) is given as “Neither clorgyline nor rasagiline (1 μM) showed significant cytotoxicity”.
